Tests used:
HGFR = molecular target: T1, HGFR (Homo sapiens, UniProt P08581); assay: Receptor binding assay (HGFR), ELISA; conditions: peptide coated 50 μg/25 μl, O.D. 450 nm
T1 construct: purchased R&D Systems
Procedure: On an ELISA plate, 50 μg/25 μl peptide and 25 μl of a coating buffer (20 mM sodium phosphate pH 9.6) were added and mixed, and then incubated at 4° C. overnight. After washing three times with PBST (300 μl), the blocking with 200 μl of a blocking buffer (3% BSA) was carried out at room temperature for 2 hours. After washing three times with PBST (300 μl), HGFR (R&D Systems) was added at 0.5 μg/1 ml per well, followed by incubation at room temperature for 2 hours. After washing three times with PBST (300 μl), anti-human IgG-HRP was diluted at 1:1,000, which was then added at 100 μl per well, followed by incubation at room temperature for 2 hours. After washing three times with PBST (300 μl), 100 μl of TMB solution was added, followed by color development. 50 μl of a stop solution (3 N H2SO4) was added to stop the reaction, and then the absorbance was read at O.D. 450 nm.

MC3T3-E1 cells = assay: ALP staining of MC3T3-E1 cells; format: cell-based, mouse; conditions: MC3T3-E1, 10 μg/ml and 50 μg/ml, 14 days
Procedure: The mouse osteoblast line, MC3T3-E1 cells were seeded on a 24-well plate at 4×10^4 cells/well, and then incubated overnight. After the exchange with a medium containing 50 μg/ml ascorbic acid+10 mM b-glycerophosphate, the cells were treated with each peptide at concentrations of 10 μg/ml and 50 μg/ml, and incubated for 14 days to induce differentiation. Here, the medium exchange every three days and the treatment with the peptide were repeated (positive control: BMP2 […]). The incubation-completed plate well was washed two times with PBS, and then the cells were immobilized with an immobilization buffer, in which acetone, 37% formaldehyde, and citric acid solution were mixed, for 30 seconds. The following staining was carried out using the leukocyte alkaline phosphatase staining kit (SIGMA).
The cells were treated with a mixture, in which an FBB-alkaline solution was mixed with a sodium nitrite solution at 1:1, for 2 minutes, and then treated with a buffer composed of distilled water and naphthol AS-BI alkaline solution, followed by color development in an incubator at 37° C. for 1 hour.

osteoprotegerin (OPG) = assay: RT-PCR of osteogenic differentiation marker OPG; format: cell-based, mouse; conditions: MC3T3-E1, three days
[1] = test system: human hair follicle germinal matrix cells (HFGMC); assay: Cell proliferation assay (SRB), HFGMC; format: cell-based; conditions: 1, 10 and 50 μg/ml, 72 hours
Procedure: In order to observe the cell proliferation effect on human hair follicle dermal papilla cells, human hair follicle germinal matrix cells, and human umbilical vein endothelial cells, which are main hair cells, each type of cells were seeded on a 96-well plate at a density of 3×10^3 cells/well, followed by incubation under conditions of 37° C. and 5% CO2 for 24 hours. After the medium was exchanged with the same culture medium completely excluding serum, the cells were treated with the peptides at different concentrations (1 μg/ml, 10 μg/ml, and 50 μg/ml), followed by incubation under the same conditions for 72 hours. After the incubation supernatant was removed, the cells were immobilized using ethanol, and washed three times with phosphate buffer saline (PBS). The wash solution was removed, and the cells were stained through the treatment with colorimetric SRB solution. After the cells were sufficiently washed with 1% acetic acid, the cells were observed using a microscope to observe the state of living cells. The absorbance was read at UV light of 560 nm, thereby measuring the survival conditions of cells

Phospho-ERK (pERK) = assay: Western blotting of cell signaling material, ERK phosphorylation; format: cell-based, human; conditions: HFDPC, 1 and 10 μg/ml, 30 minutes and 60 minutes
Procedure: (§1) In order to observe the changes in the phosphorylation of ERK and the expression of PI3K, which are main signaling materials involved in cell proliferation in the human hair follicle dermal papilla cells, the cells were treated with the peptides of the present invention for 30 minutes and 60 minutes, and then subjected to western blotting using specific antibodies, thereby observing the pERK and PI3K changes. The test was carried out using anti-pERK antibody (Santa Cruz Biotechnology, USA) and anti-pPI3K antibody (Santa Cruz Biotechnology, USA).
(§2) The cells were treated with the cell lysis buffer to obtain a lysate, followed by protein quantification, and then western blotting was performed with respect to Phospho-ERK (pERK), PI3K, and β-catenin.

PI3K = assay: Western blotting of cell signaling material, PI3K; format: cell-based, human; conditions: HFDPC, 1 and 10 μg/ml, 30 minutes and 60 minutes
Procedure: as §1, §2

IGF-1 = assay: Western blotting of hair growth protein IGF-1; format: cell-based, human; conditions: HFDPC, 0.1-50 μg/ml, 24 hours
Procedure: (§3) In order to observe the changes in the expression of IGF1, KGF, and Wnt3a, which are proteins involved in the development of hair roots in the human hair follicle dermal papilla cells, the cells were treated with the peptides of the present invention for 24 hours, and then subjected to western blotting using specific antibodies, thereby observing the changes in hair growth-related proteins.
(§4) The cells were stabilized by the incubation overnight, and then treated with the peptides at different concentrations (0.1-50 μg/ml) for 24 hours. The cells were treated with the cell lysis buffer to obtain a lysate, followed by protein quantification, and then western blotting was performed with respect to IGF-1, KGF, and Wnt3a.
(§5) The test was carried out using anti-IGF-1 antibody (Santa Cruz Biotechnology, USA), anti-KGF antibody (Santa Cruz Biotechnology, USA), and anti-Wnt3a antibody (Santa Cruz Biotechnology, USA).

KGF = assay: Western blotting of hair growth protein KGF; format: cell-based, human; conditions: HFDPC, 0.1-50 μg/ml, 24 hours
Procedure: as §3, §4, §5

Wnt3a = assay: Western blotting of hair growth protein Wnt3a; format: cell-based, human; conditions: HFDPC, 0.1-50 μg/ml, 24 hours
Procedure: as §3, §4, §5

DKK-1 = assay: Western blotting of DKK-1 with hair loss causing hormone DHT; format: cell-based, human; conditions: HFDPC, 5 μg/ml DHT together with peptide 1 and 10 μg/ml, 48 hours
Procedure: The cells were treated with DHT and the peptides for 48 hours, and then subjected to western blotting with respect to DKK-1 using specific antibodies, thereby observing the expression of DKK-1.
The human hair follicle dermal papilla cells were seeded on a 6-well plate at a density of 1×10^5 cells/well. The cells were stabilized by incubation overnight, and then treated with 5 μg/ml DHT (Sigma Aldrich) together with the peptides at different concentrations (1 μg/ml and 10 μg/ml) for 48 hours. The cells were treated with the cell lysis buffer to obtain a lysate, followed by protein quantification, and then western blotting was performed with respect to DKK-1 using anti-DKK-1 antibody (Santa Cruz Biotechnology, USA).

T1 sequence (P08581 25-1390): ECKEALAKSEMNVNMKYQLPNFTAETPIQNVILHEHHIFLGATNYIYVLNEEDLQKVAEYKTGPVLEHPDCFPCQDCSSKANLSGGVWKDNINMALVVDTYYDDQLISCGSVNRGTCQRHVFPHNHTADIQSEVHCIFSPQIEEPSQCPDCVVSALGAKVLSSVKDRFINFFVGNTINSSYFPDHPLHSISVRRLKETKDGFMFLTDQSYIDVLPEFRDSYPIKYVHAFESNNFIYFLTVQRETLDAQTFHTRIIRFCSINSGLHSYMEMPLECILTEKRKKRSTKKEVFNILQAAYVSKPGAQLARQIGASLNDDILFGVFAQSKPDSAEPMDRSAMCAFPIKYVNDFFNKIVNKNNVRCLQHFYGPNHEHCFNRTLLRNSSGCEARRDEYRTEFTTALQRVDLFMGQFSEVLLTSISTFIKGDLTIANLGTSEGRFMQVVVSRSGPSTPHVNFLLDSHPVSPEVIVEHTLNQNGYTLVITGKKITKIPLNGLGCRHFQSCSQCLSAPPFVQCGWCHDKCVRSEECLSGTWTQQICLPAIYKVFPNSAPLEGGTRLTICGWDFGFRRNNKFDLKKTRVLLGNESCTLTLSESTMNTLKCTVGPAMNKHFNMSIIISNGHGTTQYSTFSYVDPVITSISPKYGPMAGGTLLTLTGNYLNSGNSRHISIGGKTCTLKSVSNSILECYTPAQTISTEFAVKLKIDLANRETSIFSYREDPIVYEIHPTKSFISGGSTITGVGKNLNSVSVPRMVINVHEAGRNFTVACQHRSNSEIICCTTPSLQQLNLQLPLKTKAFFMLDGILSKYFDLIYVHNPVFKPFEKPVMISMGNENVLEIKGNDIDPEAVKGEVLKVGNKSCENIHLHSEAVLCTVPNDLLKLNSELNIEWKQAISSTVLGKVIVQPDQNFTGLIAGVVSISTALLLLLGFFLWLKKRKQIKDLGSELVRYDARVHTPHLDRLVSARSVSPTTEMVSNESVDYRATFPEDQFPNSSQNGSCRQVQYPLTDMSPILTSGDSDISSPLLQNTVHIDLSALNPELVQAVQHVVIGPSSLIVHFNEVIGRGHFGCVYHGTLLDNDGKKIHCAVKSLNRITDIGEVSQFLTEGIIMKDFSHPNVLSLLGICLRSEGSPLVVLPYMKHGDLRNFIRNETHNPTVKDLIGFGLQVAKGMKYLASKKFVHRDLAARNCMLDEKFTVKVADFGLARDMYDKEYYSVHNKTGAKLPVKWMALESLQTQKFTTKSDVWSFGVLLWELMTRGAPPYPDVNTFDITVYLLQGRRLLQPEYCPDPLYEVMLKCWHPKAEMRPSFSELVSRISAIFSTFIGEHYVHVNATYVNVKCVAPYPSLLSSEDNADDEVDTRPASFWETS

Q: With “NH2-Ala-Cys-Arg-Ser-Ala-Ile-Gly-Arg-Pro-Cys-COOH (H-ACRSAIGRPC-OH; cysteine pairing not given here) [SEQ ID NO: 1]” as the substance, how does the “binding affinity on HGFR” value (HGFR) read?
A: Its value is “high binding affinity”.

Q: What about the “ALP expression (ALP staining)” value (MC3T3-E1 cells) of the same substance?
A: The value was “increased”.

Q: What about the “expression of osteoprotegerin (OPG)” value (osteoprotegerin (OPG)) of the same substance?
A: The value was “increased”.

Q: What about the “cell proliferation, HFGMC” value [1] of the same substance?
A: Its value is “increased in a concentration-dependent manner”.

Q: And the “phosphorylation of ERK” value (Phospho-ERK (pERK))?
A: Its value is “increased”.

Q: What about the “level of PI3K” value (PI3K) of the same substance?
A: The value was “increased”.

Q: What about the “expression of IGF-1” value (IGF-1) of the same substance?
A: Its value is “increased”.

Q: And the “expression of KGF” value (KGF)?
A: The value was “increased”.

Q: What about the “expression of Wnt3a” value (Wnt3a) of the same substance?
A: Its value is “increased”.

Q: And the “expression of DKK-1 increased by DHT” value (DKK-1)?
A: The value was “reduced”.

Source: US10238710B2, “Peptide having anti-inflammatory, osteogenic and hair growth promoting activities, and use of same” (CAREGEN CO., LTD., priority 2014, dated 2019)
